Test results reported in patent publication US20090191173A1, “Induction Of Neurogenesis And Stem Cell Therapy In Combination With Copolymer 1” (priority 2004, published 2009).

Experiments:
[1] = tested on: neural progenitor cells (NPCs); test: Oligodendrocyte differentiation (NG2, RIP, GalC) of NPCs co-cultured with activated microglia; assay type: cell-based, mouse; conditions: 5 days, presence of insulin
Procedure: (iii) Neural progenitor cell (NPC) culture. Coronal sections (2 mm thick) of tissue containing the subventricular zone of the lateral ventricle were obtained from the brains of adult C57B16/J mice. The tissue was minced and then incubated for digestion at 37° C., 5% CO2 for 45 min in Earle's balanced salt solution containing 0.94 mg/ml papain (Worthington, Lakewood, N.J.) and 0.18 mg/ml of L-cysteine and EDTA. After centrifugation at 110×g for 15 min at room temperature, the tissue was mechanically dissociated by pipette trituration. Cells obtained from single-cell suspensions were plated (3500 cells/cm^2) in 75-cm^2 Falcon tissue-culture flasks (BD Biosciences, Franklin Lakes, N.J.), in NPC-culturing medium [Dulbecco's modified Eagles's medium (DMEM)/F12 medium (Gibco/Invitrogen, Carlsbad, Calif.) containing 2 mM L-glutamine, 0.6% glucose, 9.6 μg/ml putrescine, 6.3 ng/ml progesterone, 5.2 ng/ml sodium selenite, 0.02 mg/ml insulin, 0.1 mg/ml transferrin, 2 μg/ml heparin (all from Sigma-Aldrich, Rehovot, Israel), fibroblast growth factor-2 (human recombinant, 20 ng/ml), and epidermal growth factor (human recombinant, 20 ng/ml; both from Peprotech, Rocky Hill, N.J.)]. Spheres were passaged every 4-6 days and replated as single cells. Green fluorescent protein (GFP)-expressing neural progenitor cells (NPCs) were obtained as previously described (Pluchino et al., 2003). […]

[2] = tested on: neural progenitor cells (NPCs); test: Neuronal differentiation of GFP-expressing NPCs co-cultured with differently activated microglia; assay type: cell-based, mouse; conditions: absence of microglia, insulin 0.02 mg/ml
Procedure: (iii) Neural progenitor cell (NPC) culture. Coronal sections (2 mm thick) of tissue containing the subventricular zone of the lateral ventricle were obtained from the brains of adult C57B16/J mice. […] After centrifugation at 110×g for 15 min at room temperature, the tissue was mechanically dissociated by pipette trituration. […] Cell proliferation rates and cell survival in vitro were determined by staining with 5-bromo-2′-deoxyuridine (BrdU, 2.5 μM; Sigma-Aldrich, St. Louis). For quantification of live and dead cells, live cultures were stained with 1 μg/ml propidium iodide (Molecular Probes, Invitrogen, Carlsbad, Calif.) and 1 μg/ml Hoechst 33342 (Sigma-Aldrich, St. Louis), and cells were counted using Image-Pro (Media Cybernetics, Silver Spring, Md.), as described (Hsieh et al., 2004) (vi) Immunocytochemistry. […]

insulin: insulin added to differentiation medium (0.02 mg/ml)
NG2+ cells [1]: did not affect the incidence of NG2^+ cells | numbers of GFP+/β-III-tubulin+ cells in NPC cultures [2]: did not increase
